# In article PMC6792352, “Limited Chemical Structural Diversity Found to Modulate Thyroid Hormone Receptor in the Tox21 Chemical Library” (Environmental Health Perspectives, 2019):
# Like-named read-outs stand apart in the source and are kept apart here.
# Tests used:
# [1] = system: thyroid hormone receptor (endogenous TRα and TRβ); experiment: GH3-TRE-Ag primary qHTS, luciferase reporter, agonist mode (TOX21_TR_LUC_GH3_Agonist, aeid 803); assay type: cell-based, rat; conditions: for GH3-TRE-Ag AC50 hitc: hit call from tcpl; for AC50: read-out: GH3-TRE-Ag AC50
# [2] = system: thyroid hormone receptor (endogenous TRα and TRβ); experiment: GH3-TRE-Ag-Followup confirmation (TOX21_TR_LUC_GH3_Agonist_Followup, aeid 2226); assay type: cell-based, rat; conditions: for AC50: read-out: GH3-TRE-Ag-Followup AC50; for GH3-TRE-Ag-Followup hitc: hit call from tcpl
# human RXRα = target: T1, human RXRα (Homo sapiens, UniProt P19793); experiment: RXRa-bla-Ag mammalian one-hybrid beta-lactamase assay (TOX21_TR_RXR_BLA_Agonist_Followup_ratio, aeid 2253); assay type: cell-based; conditions: for tr-followup-rxr-bla-agonist-1 hitc: hit call from tcpl; for Emax: read-out: EMax (% of Control) tr-followup-rxr-bla-agonist-1
# T1 construct: host or cells: GeneBLAzer UAS-bla HEK 293T
# T1 sequence (P19793 227-458 limits assumed): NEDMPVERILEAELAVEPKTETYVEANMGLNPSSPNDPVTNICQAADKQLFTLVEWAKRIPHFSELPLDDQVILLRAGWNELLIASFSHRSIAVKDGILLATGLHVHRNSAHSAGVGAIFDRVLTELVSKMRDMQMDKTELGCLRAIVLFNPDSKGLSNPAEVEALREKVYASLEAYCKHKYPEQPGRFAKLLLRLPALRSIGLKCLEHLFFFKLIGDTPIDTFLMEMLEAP
# [3] = target: T2, TRα ligand-binding domain (Homo sapiens, UniProt P10827); experiment: TRa-coa LanthaScreen TR-FRET coactivator (SRC-2 peptide) recruitment, agonist (TOX21_TRA_COA_Agonist_Followup_ratio, aeid 2230); assay type: biochemical; conditions: for TRa-coa hitc: hit call from tcpl; for Emax: read-out: EMax (% of Control) tra-coa-agonist-followup-1
# T2 construct: the receptor LBDs expressed as glutathione S-transferase (GST) fusion proteins; purchased
# [4] = Global cytotoxicity: eighteen Tox21 cell viability assays; assay type: cell-based
# [5] = system: Tox21 cell viability assays (different cell types); experiment: as above; assay type: cell-based
# [6] = system: thyroid hormone receptor (TR); experiment: Classification of TR actives across characterization assays (TR-Ag / RXR-Ag; TR model binary); set-up: key to Categorization Code: FP, false positive; conditions: for Categorization Code: TR agonist characterization
# Method in brief: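 GH3-TRE qHTS agonist, antagonist and viability modes over 8,305 compounds; 84 candidates rescreened in GH3-TRE-Ag, TRβ- and RXRα-UAS-bla HEK 293T one-hybrid assays, HEK293T viability, and TRα/TRβ coactivator recruitment. Actives classified binary after removing pharmaceuticals.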
# GH3-TRE-Luc cell line [7] = system: GH3-TRE-Luc cell line
# [8] = target: T3, human TRβ ligand-binding domain (Homo sapiens, UniProt P10828); experiment: TRb-bla agonist mammalian one-hybrid beta-lactamase assay (TOX21_TRB_BLA_Agonist_Followup_ratio, aeid 2236); assay type: cell-based; set-up: host or cells: GeneBLAzer UAS-bla HEK 293T; conditions: for TRb-bla hitc: hit call from tcpl
# T3 sequence (P10828 217-461 limits assumed): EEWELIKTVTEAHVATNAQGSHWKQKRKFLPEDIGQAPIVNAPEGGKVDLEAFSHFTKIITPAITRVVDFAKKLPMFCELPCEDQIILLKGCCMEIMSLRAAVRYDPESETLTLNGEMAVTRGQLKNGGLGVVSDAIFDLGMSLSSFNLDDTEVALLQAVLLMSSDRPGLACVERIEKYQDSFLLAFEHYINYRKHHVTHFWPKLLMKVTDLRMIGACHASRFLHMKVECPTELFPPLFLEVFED
# [9] = target: T3, human TRβ ligand-binding domain; experiment: TRb-coa LanthaScreen TR-FRET coactivator (SRC-2 peptide) recruitment, agonist (TOX21_TRB_COA_Agonist_Followup_ratio, aeid 2244); assay type: biochemical; set-up: host or cells: GeneBLAzer UAS-bla HEK 293T; conditions: for TRb-coa hitc: hit call from tcpl; for Emax: read-out: EMax (% of Control) trb-coa-agonist-followup-1
# [10] = system: thyroid hormone receptor (endogenous TRα and TRβ); experiment: cells; set-up: species or system GH3-TRE-Luc (rat pituitary); GH3-TRE-Luc luciferase reporter transactivation, agonist mode, qHTS; RXR ligands can also activate indirectly; conditions: 24 h, read-out: TR_LUC_GH3_Agonist_AC50 (uM)
# [11] = system: thyroid hormone receptor (endogenous TRα and TRβ); experiment: cells; set-up: species or system GH3-TRE-Luc (rat pituitary); GH3-TRE-Luc luciferase reporter, antagonist mode against 1 nM T3, loss of signal, qHTS; conditions: 24 h; antagonist mode, 1 nM T3; no GH3 cytotoxicity hit; read-out: Average AC50 (uM) GH3-TRE-Antag
# in vitro [12] = experiment: in vitro; set-up: species or system GH3-TRE-Luc (rat pituitary); CellTiter-Fluor viability run in parallel with antagonist mode (1 nM T3), loss of viability; conditions: rat, gh3-tre-luc cells, AC50 (uM) modified / 1000, Tox21_110001=Tox21_113033, viability, 1 nM T3 present
# luciferase = luciferase (Photinus pyralis, UniProt P08659); experiment: Luciferase inhibition
# GH3-TRE-Luc cell line [13] = conditions: read-out: AC50 (uM) modified / 1000; Tox21_110001=Tox21_303049; viability, 1 nM T3 present, 24 h
# in vitro [14] = conditions: rat, gh3-tre-luc cells, AC50 (uM) modified / 1000
# GH3-TRE-Luc cell line [15] = experiment: GH3-TRE-Via cell viability, CellTiter-Fluor (TOX21_TR_LUC_GH3_Antagonist_viability, aeid 805)
# [16] = target: human retinoid X receptor alpha (RXRα) ligand-binding domain of the GeneBLAzer RXRα-UAS-bla HEK 293T one-hybrid assay (human)
# T2 sequence (P10827 163-410 isoform P10827-2 limits assumed, other chains not shown): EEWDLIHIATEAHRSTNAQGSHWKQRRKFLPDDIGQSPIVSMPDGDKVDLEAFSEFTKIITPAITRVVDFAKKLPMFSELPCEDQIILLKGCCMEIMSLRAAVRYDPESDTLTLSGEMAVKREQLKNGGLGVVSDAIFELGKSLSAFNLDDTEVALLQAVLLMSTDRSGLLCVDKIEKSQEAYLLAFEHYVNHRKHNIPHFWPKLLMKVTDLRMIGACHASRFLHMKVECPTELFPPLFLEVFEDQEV
# luciferase, sequence (P08659 whole entry, species assumed): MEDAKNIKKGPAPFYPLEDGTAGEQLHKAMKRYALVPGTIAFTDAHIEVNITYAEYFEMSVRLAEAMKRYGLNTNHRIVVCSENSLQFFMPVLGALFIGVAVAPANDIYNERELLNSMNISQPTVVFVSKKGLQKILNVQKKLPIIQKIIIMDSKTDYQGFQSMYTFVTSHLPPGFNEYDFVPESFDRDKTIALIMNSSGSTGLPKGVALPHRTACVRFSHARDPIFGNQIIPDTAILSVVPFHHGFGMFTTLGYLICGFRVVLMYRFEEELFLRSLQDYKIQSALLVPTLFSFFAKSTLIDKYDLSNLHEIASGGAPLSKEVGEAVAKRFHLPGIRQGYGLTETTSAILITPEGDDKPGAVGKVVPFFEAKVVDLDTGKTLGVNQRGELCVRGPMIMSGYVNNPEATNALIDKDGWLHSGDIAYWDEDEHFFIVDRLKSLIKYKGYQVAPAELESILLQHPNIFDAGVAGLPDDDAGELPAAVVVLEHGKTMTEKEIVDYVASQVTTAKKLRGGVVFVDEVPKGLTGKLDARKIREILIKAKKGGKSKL
compound,measurement,setting,value
"CSCC[C@H](NC(=O)[C@H](Cc1ccc(OS(=O)(=O)O)cc1)NC(=O)[C@@H](N)CC(=O)O)C(=O)NCC(=O)N[C@@H](Cc1c[nH]c2ccccc12)C(=O)N[C@@H](CCSC)C(=O)N[C@@H](CC(=O)O)C(=O)N[C@@H](Cc1ccccc1)C(N)=O [Sincalide, reference compound]",EMax (% of Control) gh3-tre-agonist,[1],80.1 % of Control
same,GH3-TRE-Ag AC50 hitc,[1],1
same,AC50,"[1]; primary qHTS, agonist mode, 24 h, top concentration 92 μM",12.4 µM
same,EMax (% of Control) gh3-tre-agonist-followup-1_agonist,[2],19.9 % of Control
same,AC50,"[2]; confirmation, agonist mode",8.59 µM
same,GH3-TRE-Ag-Followup hitc,[2],0
same,AC50,"human RXRα; HEK 293T one-hybrid, agonist mode, inactive set to 1,000, read-out: RXRa-bla-Ag AC50",10.5 µM
same,tr-followup-rxr-bla-agonist-1 hitc,human RXRα,1
same,Emax,human RXRα,36.1%
same,AC50,"[3]; cell-free coactivator recruitment, read-out: TRa-coa-Ag AC50",> 92 µM
same,TRa-coa hitc,[3]; agonist,0
same,Emax,[3],-0.4%
same,AC50,[4],> 92 µM
same,GLOBAL CYTOTOXICITY cytotox.median,[5],>92
same,GLOBAL CYTOTOXICITY cytotox.number_Active,[5],0
same,Categorization Code,[6],RXR-Ag
same,Classification,"[6]; TR-Ag = TR agonist, RXR-Ag = RXR agonist",RXR-Ag
same,AC50,,> 92 µM
same,TR_LUC_GH3_Antagonist_viability hitc,GH3-TRE-Luc cell line [7],0
same,AC50,"[8]; HEK 293T one-hybrid, agonist mode, read-out: TRb-bla-Ag AC50",> 92 µM
same,TRb-bla hitc,[8]; agonist,0
same,AC50,"[9]; cell-free coactivator recruitment, read-out: TRb-coa-Ag AC50",> 92 µM
same,TRb-coa hitc,[9]; agonist,0
same,Emax,[9],-0.125%
C[C@]12CC[C@@H]3c4ccc(OC(=O)N(CCCl)CCCl)cc4CC[C@H]3[C@@H]1CC[C@@H]2OP(=O)(O)O [Estramustine phosphate],AC50,[10],> 50 µM
same,AC50,[11],42.9 µM
same,CC50 at 24 h,in vitro [12],> 50 µM
"CN(C)c1ccc(N=O)cc1 [N,N-dimethyl-4-nitrosoaniline]",EMax (% of Control) gh3-tre-agonist,[1],31.0 % of Control
same,GH3-TRE-Ag AC50 hitc,[1],1
same,AC50,[1],12.3 µM
same,EMax (% of Control) gh3-tre-agonist-followup-1_agonist,[2],47.7 % of Control
same,GH3-TRE-Ag-Followup hitc,[2],1
same,AC50,[2],9.01 µM
same,AC50,human RXRα,> 92 µM
same,tr-followup-rxr-bla-agonist-1 hitc,human RXRα,0
same,Emax,human RXRα,1.8%
same,AC50,"[3]; agonist, read-out: TRa-coa AC50",> 92 µM
same,TRa-coa hitc,[3]; agonist,0
same,Emax,[3],-0.217%
same,Categorization Code,[6],FP
same,luciferase inhibition,luciferase,luciferase inhibitor
same,CC50,GH3-TRE-Luc cell line [13],8.37 µM
same,CC50 at 24 h,in vitro [14],5.44 µM
same,AC50,"[8]; agonist, read-out: TRb-bla AC50",> 92 µM
same,TRb-bla hitc,[8]; agonist,0
same,Emax,[8]; read-out: EMax (% of Control) trb-bla-agonist-followup-1,8.4%
same,AC50,"[9]; agonist, read-out: TRb-coa AC50",> 92 µM
same,TRb-coa hitc,[9]; agonist,0
same,Emax,[9],-0.165%
same,AC50,"GH3-TRE-Luc cell line [15]; Rattus norvegicus, read-out: TR_LUC_GH3_Antagonist_viability AC50 (uM)",6.9 µM
same,TR_LUC_GH3_Antagonist_viability hitc,GH3-TRE-Luc cell line [15]; hit call from tcpl,1
Sincalide (peptide),"RXRa-bla-Ag AC50 (β-lactamase reporter gene, RXRα-UAS-bla HEK 293T mammalian one-hybrid assay, agonist mode)",[16],10.5 µM
